Source: ChEMBL document CHEMBL3046118, “Coumarinyl pyrazole derivatives of INH: promising antimycobacterial agents” (Med Chem Res, 2013)
In brackets after ≈: the same amount, converted by molar mass.

System: Mycobacterium tuberculosis
Assay: Antimycobacterial activity against Mycobacterium tuberculosis H37Rv assessed as growth inhibition after 6 days by resazurin MIC assay
Assay type: functional, organism-based
Settings: for IC50 / IC90 / MIC: Mycobacterium tuberculosis, H37Rv, 144 h

| Compound | growth inhibition (GI) [%] | IC50 [µg/mL] | IC90 [µg/mL] | MIC [µg/mL] |
| --- | --- | --- | --- | --- |
| O=C(c1ccncc1)n1nc(-c2ccccc2[N+](=O)[O-])cc1-c1cc2ccccc2oc1=O | 67.83 | 1.9 (≈ 4.33 µM) | 2.74 (≈ 6.25 µM) | 2.5 (≈ 5.7 µM) |
| O=C(c1ccncc1)n1nc(-c2ccc(O)cc2)cc1-c1cc2ccccc2oc1=O | 69.91 | 1.51 (≈ 3.69 µM) | 2.85 (≈ 6.96 µM) | 2.5 (≈ 6.11 µM) |
| O=C(c1ccncc1)n1nc(-c2ccccc2)cc1-c1cc2ccccc2oc1=O | 73.53 | 1.92 (≈ 4.88 µM) | 2.26 (≈ 5.74 µM) | 2.5 (≈ 6.35 µM) |
| COc1ccc(-c2cc(-c3cc4ccccc4oc3=O)n(C(=O)c3ccncc3)n2)cc1 | 66.67 | 1.21 (≈ 2.86 µM) | 1.35 (≈ 3.19 µM) | 2.5 (≈ 5.9 µM) |
| O=C(c1ccncc1)n1nc(-c2ccc(Cl)cc2)cc1-c1cc2ccccc2oc1=O | 75.39 | 0.75 (≈ 1.75 µM) | 1.22 (≈ 2.85 µM) | 1.25 (≈ 2.92 µM) |
| CN(C)c1ccc(-c2cc(-c3cc4ccccc4oc3=O)n(C(=O)c3ccncc3)n2)cc1 | 73.82 | 1.21 (≈ 2.77 µM) | 2.3 (≈ 5.27 µM) | 2.5 (≈ 5.73 µM) |
| O=C(c1ccncc1)n1nc(-c2ccc(Cl)cc2Cl)cc1-c1cc2ccccc2oc1=O | 69.09 | 0.74 (≈ 1.6 µM) | 1.46 (≈ 3.16 µM) | 1.25 (≈ 2.7 µM) |
| O=C(c1ccncc1)n1nc(-c2cccc([N+](=O)[O-])c2)cc1-c1cc2ccccc2oc1=O | 65.39 | 0.89 (≈ 2.03 µM) | 1.67 (≈ 3.81 µM) | 1.25 (≈ 2.85 µM) |
| Cc1ccc(-c2cc(-c3cc4ccccc4oc3=O)n(C(=O)c3ccncc3)n2)cc1 | 62.63 | 2.46 (≈ 6.04 µM) | 2.69 (≈ 6.6 µM) | 5 (≈ 12.3 µM) |
| COc1cccc(-c2cc(-c3cc4ccccc4oc3=O)n(C(=O)c3ccncc3)n2)c1 | 65.14 | 1.17 (≈ 2.76 µM) | 1.29 (≈ 3.05 µM) | 1.25 (≈ 2.95 µM) |
| O=C(c1ccncc1)n1nc(-c2ccc(F)cc2)cc1-c1cc2ccccc2oc1=O | 80.09 | 0.41 (≈ 0.997 µM) | 0.73 (≈ 1.77 µM) | 0.625 (≈ 1.52 µM) |
| NNC(=O)c1ccncc1 [ISONIAZID] |  |  |  | 0.06 (≈ 0.438 µM) |
| CO[C@H]1/C=C/O[C@@]2(C)Oc3c(C)c(O)c4c(O)c(c(/C=N/N5CCN(C)CC5)c(O)c4c3C2=O)NC(=O)/C(C)=C\C=C\[C@H](C)[C@H](O)[C@@H](C)[C@@H](O)[C@@H](C)[C@H](OC(C)=O)[C@@H]1C [RIFAMPIN] |  |  |  | 0.003 (≈ 0.00365 µM) |
